In patent publication US8252939B2, “Sulfoximinamide compounds for combating animal pests” (BASF SE, priority 2008, dated 2012):

Experiments:
Type in all cases: in vivo
Nephotettix virescens = assay: Rice green leafhopper (Nephotettix virescens), sprayed rice seedlings; conditions: after 72 hours, read-out: mortality in comparison with untreated controls
Procedure: Rice seedlings were cleaned and washed 24 hours before spraying. The active compounds were formulated in 50:50 acetone:water (vol:vol), and 0.1% vol/vol surfactant (EL 620) was added. Potted rice seedlings were sprayed with 5 ml test solution, air dried, placed in cages and inoculated with 10 adults. Treated rice plants were kept at about 28-29° C. and relative humidity of about 50-60%. Percent mortality was recorded after 72 hours.

Myzus persicae [1] = assay: Green peach aphid (Myzus persicae) II, pepper plant leaf dip; conditions: foliar, 120 h, after 5 days, read-out: mortality in comparison with untreated controls
From the text: The active compounds were formulated in 50:50 acetone:water (vol:vol) and 100 ppm Kinetica™ surfactant.
Pepper plants in the 2nd leaf-pair stage (variety ‘California Wonder’) were infested with approximately 40 laboratory-reared aphids by placing infested leaf sections on top of the test plants. The leaf sections were removed after 24 hr. The leaves of the intact plants were dipped into gradient solutions of the test compound and allowed to dry. Test plants were maintained under fluorescent light (24 hour photoperiod) at about 25° C. and about 20-40% relative humidity. Aphid mortality on the treated plants, relative to mortality on check plants, was determined after 5 days.

Megoura viciae = assay: Vetch aphid (Megoura viciae) contact or systemic, broad bean leaf disks; conditions: foliar, 120 h, after 5 days, read-out: mortality in comparison with untreated controls
Procedure: For evaluating control of vetch aphid (Megoura viciae) through contact or systemic means the test unit consisted of 24-well-microtiter plates containing broad bean leaf disks.
The compounds were formulated using a solution containing 75% v/v water and 25% v/v DMSO. Different concentrations of formulated compounds were sprayed onto the leaf disks at 2.5 μl, using a custom built micro atomizer, at two replications. After application, the leaf disks were air-dried and 5-8 adult aphids placed on the leaf disks inside the microtiter plate wells. The aphids were then allowed to suck on the treated leaf disks and incubated at about 23±1° C. and about 50±5% relative humidity for 5 days. Aphid mortality and fecundity was then visually assessed.

aphis craccivora = assay: Cowpea aphid (aphis craccivora), sprayed potted cowpea plants; conditions: population reduction assessed after 24, 72, and 120 hours, read-out: mortality in comparison with untreated controls
Procedure: The active compound is dissolved at the desired concentration in a mixture of 1:1 (vol:vol) distilled water:acetone. The test solution is prepared at the day of use.
Potted cowpea plants colonized with approximately 100-150 aphids of various stages were sprayed after the pest population has been recorded. Population reduction was assessed after 24, 72, and 120 hours.

Aphis gossypii = assay: Cotton aphid (Aphis gossypii) I, cotton cotyledon dip; conditions: 120 h, after 5 days, read-out: mortality in comparison with untreated controls
From the text: The active compounds were formulated in 50:50 (vol:vol) acetone:water and 100 ppm Kinetica™ surfactant.
Cotton plants at the cotyledon stage (one plant per pot) were infested by placing a heavily infested leaf from the main colony on top of each cotyledon. The aphids were allowed to transfer to the host plant overnight, and the leaf used to transfer the aphids was removed. The cotyledons were dipped in the test solution and allowed to dry. After 5 days, mortality counts were made.

dichromothrips corbetti = assay: Orchid thrips (dichromothrips corbetti) floral-immersion; conditions: 96 h, after 4 days, read-out: mortality in comparison with untreated controls
Procedure: Dichromothrips corbetti adults used for bioassay were obtained from a colony maintained continuously under laboratory conditions. For testing purposes, the test compound was diluted to a concentration of 300 ppm (wt compound: vol diluent) in a 1:1 mixture of acetone:water (vol:vol), plus 0.01% vol/vol Kinetic® surfactant.
Thrips potency of each compound was evaluated by using a floral-immersion technique. Plastic petri dishes were used as test arenas. All petals of individual, intact orchid flowers were dipped into treatment solution and allowed to dry. Treated flowers were placed into individual petri dishes along with 10-15 adult thrips. The petri dishes were then covered with lids. All test arenas were held under continuous light and a temperature of about 28° C. for duration of the assay. After 4 days, the numbers of live thrips were counted on each flower, and along inner walls of each petri dish. The level of thrips mortality was extrapolated from pre-treatment thrips numbers.

Myzus persicae [2] = assay: Green peach aphid (Myzus persicae) I, systemic, artificial diet under membrane; conditions: 72 h, after 3 days, read-out: mortality in comparison with untreated controls
From the text: For evaluating control of green peach aphid (Myzus persicae) through systemic means the test unit consisted of 96-well-microtiter plates containing liquid artificial diet under an artificial membrane.
The compounds were formulated using a solution containing 75% v/v water and 25% v/v DMSO. Different concentrations of formulated compounds were pipetted into the aphid diet, using a custom built pipetter, at two replications.
After application, 5-8 adult aphids were placed on the artificial membrane inside the microtiter plate wells. The aphids were then allowed to suck on the treated aphid diet and incubated at about 23±1° C. and about 50±5% relative humidity for 3 days. Aphid mortality and fecundity was then visually assessed.

Anthonomus grandis = assay: Boll weevil (Anthonomus grandis) egg and larval mortality, microtiter plate insect diet; conditions: 120 h, egg and larval mortality after 5 days, read-out: mortality in comparison with untreated controls
Procedure: For evaluating control of boll weevil (Anthonomus grandis) the test unit consisted of 24-well-microtiter plates containing an insect diet and 20-30 A. grandis eggs.
The compounds were formulated using a solution containing 75% v/v water and 25% v/v DMSO. Different concentrations of formulated compounds were sprayed onto the insect diet at 20 μl, using a custom built micro atomizer, at two replications. After application, microtiter plates were incubated at about 23±1° C. and about 50±5% relative humidity for 5 days. Egg and larval mortality was then visually assessed.

N#CN=S1(=O)CCCN1c1cnc(Cl)c(Cl)c1 (centres unmarked) [compound 12]
> 75%: mortality at 300 ppm (Nephotettix virescens) | mortality at 300 ppm (Myzus persicae [1]) | mortality at 2500 ppm (Megoura viciae) | mortality at 300 ppm (aphis craccivora) | mortality at 300 ppm (Aphis gossypii)

CS(=O)(=NC#N)NCc1ccc(Cl)nc1 (centres unmarked) [compound 90]
> 75%: mortality at 300 ppm (Myzus persicae [1]) | mortality at 2500 ppm (Megoura viciae) | mortality at 300 ppm (aphis craccivora) | mortality at 300 ppm (Aphis gossypii)

N#CN=S1(=O)CCCN1Cc1ccc(Cl)nc1 (centres unmarked) [compound 1]
> 75%: mortality at 300 ppm (Nephotettix virescens) | mortality at 300 ppm (dichromothrips corbetti) | mortality at 300 ppm (Myzus persicae [1]) | mortality at 2500 ppm (Megoura viciae) | mortality at 300 ppm (aphis craccivora) | mortality at 300 ppm (Myzus persicae [2]) | mortality at 2500 ppm (Anthonomus grandis) | mortality at 300 ppm (Aphis gossypii)
